Source: publication PMC7827406, “Structure–Activity Relationship (SAR) Study of Spautin-1 to Entail the Discovery of Novel NEK4 Inhibitors” (International Journal of Molecular Sciences, 2021)
Like-named read-outs stand apart in the source and are kept apart here.

Assays:
Experiment in all cases: biochemical
Design in all cases: Eurofins KinaseProfiler full panel at Km ATP, residual kinase activity (%) relative to DMSO
Flt3(D835Y)(h) = biological target: T1, Flt3(D835Y)(h) (Homo sapiens, UniProt P36888, D835Y)
T1 sequence (P36888 1-993 D835Y): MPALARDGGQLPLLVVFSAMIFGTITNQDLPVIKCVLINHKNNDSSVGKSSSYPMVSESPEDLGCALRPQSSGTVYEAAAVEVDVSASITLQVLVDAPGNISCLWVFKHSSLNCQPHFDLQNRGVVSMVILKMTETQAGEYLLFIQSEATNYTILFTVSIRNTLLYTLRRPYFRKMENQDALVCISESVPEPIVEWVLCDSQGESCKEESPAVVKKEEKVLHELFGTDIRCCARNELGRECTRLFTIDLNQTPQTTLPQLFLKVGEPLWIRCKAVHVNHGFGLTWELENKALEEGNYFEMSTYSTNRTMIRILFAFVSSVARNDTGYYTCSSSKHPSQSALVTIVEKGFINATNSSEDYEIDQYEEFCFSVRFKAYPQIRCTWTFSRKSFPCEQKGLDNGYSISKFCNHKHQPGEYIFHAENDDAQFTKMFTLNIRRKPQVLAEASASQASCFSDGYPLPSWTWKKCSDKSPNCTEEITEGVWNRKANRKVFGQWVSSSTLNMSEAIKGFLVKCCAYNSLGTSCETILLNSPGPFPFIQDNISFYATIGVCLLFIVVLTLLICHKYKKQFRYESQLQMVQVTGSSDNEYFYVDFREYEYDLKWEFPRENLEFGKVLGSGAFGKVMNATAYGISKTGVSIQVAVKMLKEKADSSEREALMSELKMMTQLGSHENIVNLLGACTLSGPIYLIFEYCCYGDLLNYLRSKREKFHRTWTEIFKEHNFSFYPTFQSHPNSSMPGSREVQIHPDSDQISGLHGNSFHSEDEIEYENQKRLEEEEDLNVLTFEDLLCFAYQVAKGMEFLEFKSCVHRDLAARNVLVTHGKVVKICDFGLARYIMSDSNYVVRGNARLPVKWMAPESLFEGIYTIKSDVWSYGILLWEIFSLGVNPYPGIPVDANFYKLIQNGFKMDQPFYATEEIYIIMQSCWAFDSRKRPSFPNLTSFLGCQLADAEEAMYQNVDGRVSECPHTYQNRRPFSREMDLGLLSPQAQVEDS
Procedure, shortened: (§1)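 Two 10 µM single-concentration screens were run: a competition-binding screen, in which DNA-tagged kinase bound to immobilized ligands was quantified by qPCR, and a radiometric activity panel at Km ATP. Each is expressed as residual kinase activity (%).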

EphB3(h) = biological target: T2, EphB3(h) (Homo sapiens, UniProt P54753)
T2 sequence (P54753 1-998): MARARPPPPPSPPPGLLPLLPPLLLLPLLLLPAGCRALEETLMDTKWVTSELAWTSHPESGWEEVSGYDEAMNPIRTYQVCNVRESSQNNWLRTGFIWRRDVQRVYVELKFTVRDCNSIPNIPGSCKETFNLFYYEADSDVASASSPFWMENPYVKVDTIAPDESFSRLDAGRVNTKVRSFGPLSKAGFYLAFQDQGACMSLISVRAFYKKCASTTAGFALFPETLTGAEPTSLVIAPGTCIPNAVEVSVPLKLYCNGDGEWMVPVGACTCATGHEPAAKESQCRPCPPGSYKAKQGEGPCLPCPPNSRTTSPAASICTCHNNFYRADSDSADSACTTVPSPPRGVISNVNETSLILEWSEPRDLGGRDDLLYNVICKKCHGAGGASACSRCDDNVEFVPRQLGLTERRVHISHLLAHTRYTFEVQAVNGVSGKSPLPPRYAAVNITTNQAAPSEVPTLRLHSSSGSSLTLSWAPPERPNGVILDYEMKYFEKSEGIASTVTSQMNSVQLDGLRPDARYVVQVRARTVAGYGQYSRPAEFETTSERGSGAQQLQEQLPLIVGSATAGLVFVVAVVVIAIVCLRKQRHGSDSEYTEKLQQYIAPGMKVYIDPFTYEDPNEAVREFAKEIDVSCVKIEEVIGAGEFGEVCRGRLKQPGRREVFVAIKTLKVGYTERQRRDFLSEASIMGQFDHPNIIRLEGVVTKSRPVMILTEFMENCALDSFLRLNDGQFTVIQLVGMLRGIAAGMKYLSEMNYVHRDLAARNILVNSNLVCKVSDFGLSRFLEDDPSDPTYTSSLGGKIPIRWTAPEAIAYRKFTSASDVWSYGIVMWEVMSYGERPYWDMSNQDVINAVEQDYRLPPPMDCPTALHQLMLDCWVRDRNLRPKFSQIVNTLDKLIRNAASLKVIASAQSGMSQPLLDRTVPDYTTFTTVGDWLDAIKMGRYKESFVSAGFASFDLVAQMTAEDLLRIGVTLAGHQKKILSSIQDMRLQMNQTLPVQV
Procedure, shortened: as §1

B-Raf(h) = biological target: T3, B-Raf(h) (Homo sapiens, UniProt P15056)
T3 construct: gene BRAF
Procedure, shortened: as §1

JNK1α1(h) = biological target: T4, JNK1α1(h) (Homo sapiens, UniProt P45983)
T4 construct: gene MAPK8; isoform alpha1
Procedure, shortened: as §1

Rsk1(h) = biological target: T5, Rsk1(h) (Homo sapiens, UniProt Q15418)
T5 construct: gene RPS6KA1
Procedure, shortened: as §1

NDR2(h) = biological target: T6, NDR2(h) (Homo sapiens, UniProt Q9Y2H1)
T6 construct: gene STK38L
Procedure, shortened: as §1

[1] = read-out: Residual activity (%) Spautin-1 5aa
[2] = read-out: Residual activity (%) 5as
[3] = read-out: Residual activity (%) 5at
[4] = read-out: Residual activity (%) 5ay

T6 sequence (Q9Y2H1 whole entry): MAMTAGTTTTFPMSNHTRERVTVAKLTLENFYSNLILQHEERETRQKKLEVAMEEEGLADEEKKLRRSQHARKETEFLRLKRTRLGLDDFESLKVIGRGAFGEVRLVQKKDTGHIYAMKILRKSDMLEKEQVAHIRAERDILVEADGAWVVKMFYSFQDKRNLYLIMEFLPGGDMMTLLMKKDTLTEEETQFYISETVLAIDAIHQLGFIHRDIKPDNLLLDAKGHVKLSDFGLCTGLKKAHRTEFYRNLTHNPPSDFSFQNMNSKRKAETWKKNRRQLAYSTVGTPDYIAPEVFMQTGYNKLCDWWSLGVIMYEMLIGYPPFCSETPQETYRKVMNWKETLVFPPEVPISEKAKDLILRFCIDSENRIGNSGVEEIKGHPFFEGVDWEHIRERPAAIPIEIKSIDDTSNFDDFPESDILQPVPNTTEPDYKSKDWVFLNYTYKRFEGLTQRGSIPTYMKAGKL
T3 sequence (P15056 whole entry): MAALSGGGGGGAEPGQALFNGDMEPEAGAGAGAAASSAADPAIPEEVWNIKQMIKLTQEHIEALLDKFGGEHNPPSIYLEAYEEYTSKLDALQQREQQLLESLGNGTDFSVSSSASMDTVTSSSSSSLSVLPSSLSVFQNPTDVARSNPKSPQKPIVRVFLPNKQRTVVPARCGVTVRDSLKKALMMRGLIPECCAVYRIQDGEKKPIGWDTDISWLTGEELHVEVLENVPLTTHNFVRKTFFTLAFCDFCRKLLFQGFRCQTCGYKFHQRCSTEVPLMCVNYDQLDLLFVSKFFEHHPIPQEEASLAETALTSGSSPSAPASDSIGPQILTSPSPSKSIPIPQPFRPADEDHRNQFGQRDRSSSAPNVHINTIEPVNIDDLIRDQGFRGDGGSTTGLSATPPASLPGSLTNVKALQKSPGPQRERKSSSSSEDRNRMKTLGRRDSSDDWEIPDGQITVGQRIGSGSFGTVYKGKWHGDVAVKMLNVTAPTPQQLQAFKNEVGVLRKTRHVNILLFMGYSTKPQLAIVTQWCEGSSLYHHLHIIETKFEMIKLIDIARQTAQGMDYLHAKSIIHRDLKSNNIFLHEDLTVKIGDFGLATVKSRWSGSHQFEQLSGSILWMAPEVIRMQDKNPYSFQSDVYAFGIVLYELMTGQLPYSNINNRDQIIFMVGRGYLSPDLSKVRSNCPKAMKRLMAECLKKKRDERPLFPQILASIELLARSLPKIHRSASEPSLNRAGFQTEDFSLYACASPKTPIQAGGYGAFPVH
T5 sequence (Q15418 whole entry): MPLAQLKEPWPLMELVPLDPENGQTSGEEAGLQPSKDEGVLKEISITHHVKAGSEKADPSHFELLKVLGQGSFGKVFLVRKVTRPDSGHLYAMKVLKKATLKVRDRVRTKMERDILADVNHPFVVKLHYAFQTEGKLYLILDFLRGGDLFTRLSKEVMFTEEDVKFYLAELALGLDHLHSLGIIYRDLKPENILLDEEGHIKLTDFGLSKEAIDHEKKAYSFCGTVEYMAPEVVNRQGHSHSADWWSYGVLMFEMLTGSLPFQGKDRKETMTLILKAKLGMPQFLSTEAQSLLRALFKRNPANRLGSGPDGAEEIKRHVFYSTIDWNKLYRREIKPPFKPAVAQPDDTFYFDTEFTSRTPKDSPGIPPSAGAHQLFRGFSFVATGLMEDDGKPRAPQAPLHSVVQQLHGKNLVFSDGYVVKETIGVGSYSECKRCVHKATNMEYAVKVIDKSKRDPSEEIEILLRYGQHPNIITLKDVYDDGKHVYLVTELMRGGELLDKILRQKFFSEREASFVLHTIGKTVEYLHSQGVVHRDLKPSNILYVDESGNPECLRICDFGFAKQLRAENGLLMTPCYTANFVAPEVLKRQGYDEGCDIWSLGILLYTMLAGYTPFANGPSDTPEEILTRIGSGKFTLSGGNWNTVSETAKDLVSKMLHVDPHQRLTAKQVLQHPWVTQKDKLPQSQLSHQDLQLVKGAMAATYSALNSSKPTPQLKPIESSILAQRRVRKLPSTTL
T4 sequence (P45983 whole entry, canonical isoform): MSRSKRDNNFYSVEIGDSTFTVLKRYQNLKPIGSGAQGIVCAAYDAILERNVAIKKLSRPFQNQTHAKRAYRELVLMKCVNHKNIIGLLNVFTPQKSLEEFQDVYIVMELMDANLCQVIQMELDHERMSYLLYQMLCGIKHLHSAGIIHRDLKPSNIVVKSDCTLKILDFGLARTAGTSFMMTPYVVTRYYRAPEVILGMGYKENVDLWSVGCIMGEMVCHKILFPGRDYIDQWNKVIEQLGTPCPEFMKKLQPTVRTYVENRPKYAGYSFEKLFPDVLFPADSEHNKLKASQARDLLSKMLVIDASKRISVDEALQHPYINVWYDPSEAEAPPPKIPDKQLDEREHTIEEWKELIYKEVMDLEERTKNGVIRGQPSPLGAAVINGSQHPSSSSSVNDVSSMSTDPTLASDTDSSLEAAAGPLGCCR

Structure (SMILES): Fc1ccc(CNc2ncnc3ccc(F)cc23)cc1 [5aa, 6-Fluoro-N-(4-fluorobenzyl)-4-Quinazolinamine]
- remaining activity at 10 µM (Flt3(D835Y)(h); [1]): 91%
- remaining activity at 10 µM (EphB3(h); [1]): 93%
- remaining activity at 10 µM (B-Raf(h); [1]): 90%
- remaining activity at 10 µM (JNK1α1(h); [1]): 98%
- remaining activity at 10 µM (Rsk1(h); [1]): 102%
- remaining activity at 10 µM (NDR2(h); [1]): 120%

Structure (SMILES): Fc1ccc(CCNc2ncnc3ccc(F)cc23)cc1 [5as, 6-Fluoro-N-[2-(4-Fluorophenyl)Ethyl]-4-Quinazolinamine]
- remaining activity at 10 µM (Flt3(D835Y)(h); [2]): 87%
- remaining activity at 10 µM (EphB3(h); [2]): 79%
- remaining activity at 10 µM (B-Raf(h); [2]): 83%
- remaining activity at 10 µM (JNK1α1(h); [2]): 83%
- remaining activity at 10 µM (Rsk1(h); [2]): 110%
- remaining activity at 10 µM (NDR2(h); [2]): 99%

Structure (SMILES): Fc1ccc2ncnc(NCCc3ccc(Cl)cc3)c2c1 [5at, N-[2-(4-Chlorophenyl)Ethyl]-6-Fluoro-4-Quinazolinamine]
- remaining activity at 10 µM (Flt3(D835Y)(h); [3]): 80%
- remaining activity at 10 µM (EphB3(h); [3]): 76%
- remaining activity at 10 µM (B-Raf(h); [3]): 92%
- remaining activity at 10 µM (JNK1α1(h); [3]): 98%
- remaining activity at 10 µM (Rsk1(h); [3]): 103%
- remaining activity at 10 µM (NDR2(h); [3]): 115%

Structure (SMILES): COc1ccc2ncnc(Nc3cccc(F)c3)c2c1 [5ay, N-(3-Fluorophenyl)-6-Methoxy-4-Quinazolinamine]
- remaining activity at 10 µM (Flt3(D835Y)(h); [4]): 49%
- remaining activity at 10 µM (EphB3(h); [4]): 84%
- remaining activity at 10 µM (B-Raf(h); [4]): 82%
- remaining activity at 10 µM (JNK1α1(h); [4]): 94%
- remaining activity at 10 µM (Rsk1(h); [4]): 116%
- remaining activity at 10 µM (NDR2(h); [4]): 103%
